In patent US8476319B2, “Methods of treating ear infections” (3M Innovative Properties Company, priority 2005, dated 2013):

Legend:
[1] = tested on: Organ of Corti hair cells; test: Ototoxicity testing in chinchillas (trans bullar injection, Organ of Corti surface preparation); details: 0.1 cc into middle ear, two injections, 17 days
Excerpt: Initial screening of selected components for ototoxic effect was preformed using chinchillas. The compounds or compounds plus vehicle were placed in proximity to the round window membrane of the chinchilla and the tissues evaluated for ototoxic insult.
General Test Procedure: Chinchillas were mildly anesthetized using 0.1 cc IM ketamine. The skin overlying the ventral aspect of the left and right bulla were shaved and surgically prepped. An amount (0.1 cubic centimeter (cc)) of the test material was placed in the middle ear near the round window niche using a 1 cc syringe with a 23 guage needle by trans bullar injection. Three days later the procedure was repeated using the same test material in each ear. Fourteen days after the second injection (total survival time=17 days) the animals were sacrificed. The bullae were removed, the cochlea isolated and perfused with fixative through the round window membrane. After standard preparation (fixation and decalcification) the samples were dissected and the Organ of Corti isolated and evaluated for ototoxic insult. The surface preparation analysis of the Organ of Corti is a universally accepted method of evaluating hair cell loss due to ototoxic insult. The chinchilla is the standard test animal used and a 14 day survival time is adequate to screen for gross hair cell disruption due to ototoxic effect. The materials were tested in both a right and left ear but using two different animals.
This served as a positive control.

[2] = Transport through the tympanic membrane, GC of saline recovered from middle ear; assay type: in vivo, chinchilla; details: for formulation component detected by GC in saline recovered from the middle ear: Example 2 formulation in outer ear next to tympanic membrane, samples at 15, 30, 60 min
Method: Example 2 formulation was evaluated for transportability across the ear drum (tympanic membrane) and into the middle ear with an animal model test using chinchillas (400 g to 500 g). A cotton plug saturated with Example 2 formulation was placed against the outer ear membrane of a chinchilla. An opening was made into the middle ear through the bulla and 1 mL saline was placed in the middle ear. At 15, 30, and 60 min. the saline was withdrawn and replaced with fresh saline. Tympanometry was completed before and after the test compositions were applied to ensure the tympanic membrane was intact (without perforations). The saline samples were kept at 4° C. until assayed.
GC Analysis: Six samples of saline recovered from the middle ear of a chinchilla were analyzed by GC. They were recovered from both the left and right ears of the test animal at 15, 30, and 60 min after an antibacterial formulation was placed in the outer ear next to the tympanic membrane. The GC analysis detected the formulation components of GML, FINSOLV NT, and benzoic acid.
Standard preparation: A single external standard of GML (Medchem—97%) at 1 mg/mL was prepared in CHCl3. Standards of methyl benzoate and FINSOLV NT were also available. Saline (0.9% NaCl) was prepared in the lab.
Sample Extraction: The six samples were contained in 1.5 mL clear plastic micorcentrifuge tubes. The 30- and 60-min samples were clear while the 15-min samples contained a water insoluble residue (there appeared to be so much antimicrobial composition in the sample collected a separate phase was noted by the analyst). The liquid was vortexed and transferred to separate 10 mL graduated clinical centrifuge tubes and the volume recorded. The sample tubes were rinsed once with approximately 0.5 mL saline vortexed and transferred to the centrifuge tube. The microtubes were rinsed a second time with approximately 0.75 mL chloroform which was also transferred to the clinical centrifuge tube. The chloroform dissolved the residue in the 15 min samples. The liquid level in the centrifuge tubes was brought to 1.7 mL by the addition of saline solution. A sample (4.5 mL) of CHCl3 was then added to the centrifuge tubes using a 5-mL graduated glass pipette. The tubes were then sealed with TEFLON screw cap tops and vortexed for 2 min. They were then centrifuged in an IEC clinical centrifuge until 2 clear phases formed (approximately 5 min). Using Pasture pipettes, the lower (organic) phases were quantitatively transferred to a set of preweighed 7-mlL vials. The extracts were treated with diazomethane (DAM) which formed the methyl esters of acids present, in this case methyl benzoate from benzoic acid present. Extracts were placed on a warm heating block and taken to dryness under a stream of nitrogen. Once constant weight was obtained, the samples were re-weighed and the net weight was recorded. Using a graduated pipette enough CHCl3 was added back to the 15 min extracts to achieve a concentration of 1 mg/mL in GML. The 30 and 60 min samples had much less weight so an arbitrary ½ mL of CHCl3 was added. An aliquot of each sample was then transferred to an autosampler vial and analyzed by GC using the conditions below. Gas Chromatography: • Instrument—HP 5890 • Column—15 meter STABILWAX-DA, 0.25 μm film 0.25 mm ID • Carrier—He, 2.07×10^5 N/m^2(30 psi) constant pressure • Injection—2 μL split 1:60, injector temp 250° C. • Liner—Restek SILTEK deactivated liner with SILTEK • deactivated glass wool (catalog number 22406-213.5) • Program—110° C. initial, 7° C./min to 250°, hold 10 minutes • Detector—FID at 250° C.
The total recovered GML was determined by direct GC analysis of the fractions. […] As indicated above a standard of methyl benzoate was substituted for benzoic acid. The components have been identified and the FINSOLV TN contributes most of the peak area. […]

[3] = recovered from middle ear saline 15 minutes after Example 2 formulation placed against tympanic membrane
[4] = recovered from middle ear saline 30 minutes after Example 2 formulation placed against tympanic membrane
[5] = total of 15, 30 and 60 minute samples, Example 2 formulation

For `CCCCCCCCCCCCCC(=O)OC(C)C` [IPM, Isopropyl myristate], the “Ototoxicity Result” value ([1]; 100%) was “Toxic (toxic (rating 2-4))”.

In the case of `O=C(O)c1ccccc1` [benzoic acid, Benzoic acid], the “formulation component detected by GC in saline recovered from the middle ear” value [2] is reported as “detected”.

For `CCCCC(CC)COC(=O)CC(C(=O)OCC(CC)CCCC)S(=O)(=O)[O-].[Na+]` (stereo not drawn) [GEMTEX (DOSS), Dioctylsulfosuccinate, sodium salt], the “Ototoxicity Result” value ([1]; 1% / 1.0% in water) was “Toxic (toxic (rating 2-4))”.

For “Propylene glycol monocaprylate [PG monocaprylate]”, the “Ototoxicity Result” value ([1]; 0.25% in water) was “No toxicity (no toxicity (rating 1))” and the “Ototoxicity Result” value ([1]; 1% / 1.0% in water) was “No toxicity (no toxicity (rating 1))”.

For `CCCCCCCCCCCC(=O)OCC(O)CO` (stereo not drawn) [GML, Glycerol monolaurate], the “formulation component detected by GC in saline recovered from the middle ear” value [2] was “detected”, the “Left ear GML” value [2, 3] was 10.3 mg and the “Right ear GML” value [2, 3] was 2.35 mg. The “Left ear GML” value [2, 4] was 0.03 mg, the “Right ear GML” value [2, 4] was 0.98 mg and the “Left ear GML (mg), Total” value [2, 5] was 10.33 mg. For the same compound, the “Right ear GML (mg), Total” value [2, 5] was 3.33 mg, the “Ototoxicity Result” value ([1]; 0.5% in water) was “No toxicity (no toxicity (rating 1))” and the “Ototoxicity Result” value ([1]; 1% / 1.0% in water) was “No toxicity (no toxicity (rating 1))”. The “Ototoxicity Result” value ([1]; 1% in IPM) was “Toxic (toxic (rating 2-4))”.
